From patent US9426990B2, “Herbicidal agents containing aclonifen” (BAYER CROPSCIENCE AG, priority 2012, dated 2016)

How the values were obtained:
[1] = tested on: Lolium spp. resistant to HRAC group B; assay: greenhouse experiment, post-emergence treatment of resistant ryegrass biotypes (HRAC group B resistant); type: in vivo; settings: post-emergence (PO, BBCH 11), about 3 weeks after application, dose g of AS/ha: aclonifen 225, pendimethalin 300, picolinafen 25, mixture 225 + 300 + 25, mesosulfuron + iodosulfuron + mefenpyr 15 + 3 + 45
Protocol: (§1) In the standard design of the test, seeds of various broad-leaved weed and weed grass biotypes (origins) were sown in a 8-13 cm diameter pot filled with natural soil of a standard field soil (loamy silt; non-sterile) and covered with a covering soil layer of about 1 cm. The pots were then cultivated in a greenhouse (12-16 h light, temperature day 20-22° C., night 15-18° C.) until the time of application. The pots were treated on a laboratory track sprayer with spray liquors comprising the compositions according to the invention, mixtures of the prior art or components used individually. Application of the active compounds or active compound combinations formulated as WG, WP, EC or otherwise was carried out at the appropriate growth stages of the plants. The amount of water used for spray application was 100-600 l/ha. After the treatment, the plants were returned to the greenhouses.
(§2) About 3 weeks after the application, the soil action or/and foliar action was assessed visually according to a scale of 0-100% in comparison to an untreated comparative group: 0%=no noticeable effect compared to the untreated comparative group; 100%=full effect compared to the untreated comparative group.
(§3) 2. Post-emergence action against weeds: seeds of various broad-leaved weed and weed grass biotypes (origins) were sown in a 8-13 cm diameter pot filled with natural soil of a standard field soil (loamy silt; non-sterile) and covered with a covering soil layer of about 1 cm. The pots were then cultivated in a greenhouse (12-16 h of light, temperature day 20-22° C., night 15-18° C.) until the time of application. […]
(§4) Insofar as herbicidal effects of the compositions according to the invention compared to mixtures of the prior art or compared to components applied individually against economically important mono- and dicotyledonous harmful plants were the center of attention, the synergistic herbicidal activities were calculated using Colby's formula (cf. S. R. Colby; Weeds 15 (1967), 20-22): E^C=(A+B+C)−(A×B+A×C+B×C)/100+(A×B×C)/10000 where: […]

[2] = tested on: Lolium spp. resistant to HRAC group A; assay: greenhouse experiment, post-emergence treatment of resistant ryegrass biotypes (HRAC group A resistant); type: in vivo; settings: post-emergence (PO, BBCH 11), about 3 weeks after application, dose g of AS/ha: aclonifen 225, pendimethalin 300, picolinafen 25, mixture 225 + 300 + 25, pinoxaden + cloquintocet-mexyl 60 + 15
Protocol: as §1, §2, §3, §4

Row | SMILES | herbicidal effect, visual assessment on a scale of 0-100% versus untreated comparative group [1] | herbicidal effect, visual assessment on a scale of 0-100% versus untreated comparative group [2]
1 | Nc1c([N+](=O)[O-])ccc(Oc2ccccc2)c1Cl [(A) aclonifen, 2-chloro-6-nitro-3-phenoxybenzenamine] | 50% | 25%
2 | CCC(CC)Nc1c([N+](=O)[O-])cc(C)c(C)c1[N+](=O)[O-] [(B) pendimethalin, N-(1-ethylpropyl)-3,4-dimethyl-2,6-dinitrobenzenamine] | 0% | 5%
3 | O=C(Nc1ccc(F)cc1)c1cccc(Oc2cccc(C(F)(F)F)c2)n1 [(C) picolinafen, N-(4-fluorophenyl)-6-[3-(trifluoromethyl)phenoxy]-2-pyridinecarboxamide] | 5% | 10%
